Source: US20090023810A1, “METHODS OF TRANSLATION AND/OR INFLAMMATION BLOCKADE” (priority 2007, published 2009)

Tests used:
[1] = test system: HeLa cells; assay: Stress granule (SG) formation in HeLa cells, immunocytochemistry; format: cell-based; conditions: pretreated with 1 μM for 24 hours, then 50 μM prostaglandin 1 hour, FIG. 3C
[2] = molecular target: T1, PPARγ (Homo sapiens, UniProt P37231); assay: PPARγ reporter (PPRE) luciferase assay in 293T cells; format: cell-based; conditions: 1 μM 24 hours before 10 μM rosiglitazone or troglitazone 12 hours, FIG. 3D
T1 construct: 293T cells that were transfected with a plasmid (1 μg) expressing a PPARγ reporter gene; endogenous in cells; host or cells: 293T
T1 sequence (P37231 1-505): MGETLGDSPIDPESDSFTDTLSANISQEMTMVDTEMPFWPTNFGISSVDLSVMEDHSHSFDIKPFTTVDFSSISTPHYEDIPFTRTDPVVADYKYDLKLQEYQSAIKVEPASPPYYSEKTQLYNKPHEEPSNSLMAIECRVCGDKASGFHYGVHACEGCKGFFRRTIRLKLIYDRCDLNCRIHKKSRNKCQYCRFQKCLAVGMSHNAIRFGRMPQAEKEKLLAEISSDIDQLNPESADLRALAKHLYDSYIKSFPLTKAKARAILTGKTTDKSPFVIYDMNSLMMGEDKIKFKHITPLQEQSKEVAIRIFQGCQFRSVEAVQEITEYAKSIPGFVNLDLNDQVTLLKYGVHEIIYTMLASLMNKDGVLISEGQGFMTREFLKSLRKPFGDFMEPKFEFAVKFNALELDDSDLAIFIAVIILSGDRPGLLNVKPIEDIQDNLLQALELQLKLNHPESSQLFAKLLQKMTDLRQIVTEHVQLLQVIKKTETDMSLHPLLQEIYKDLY
Procedure: Luciferase assays were performed as described elsewhere (Kim et al., 2005, which is hereby incorporated by reference for all purposes as if fully set forth herein).
293T cells that were transfected with a plasmid (1 μg) expressing a PPARγ reporter gene. After transfection, cells were pretreated or not pretreated with 1 μM of GW9662 for 24 hours, before being treated with 10 μM of rosiglitazone (Rosi) or troglitazone (Tro) for 12 hours. The obtained relative luciferase activities in the cell extracts normalized to a mock-treated control extract are shown in FIG. 3D.

[3] = molecular target: T2, eIF4A (Homo sapiens, UniProt P60842); conditions: cited from earlier work
T2 construct: His; gift of Dr. Nadejda Korneeva, Louisiana State University
T2 sequence (P60842 whole entry): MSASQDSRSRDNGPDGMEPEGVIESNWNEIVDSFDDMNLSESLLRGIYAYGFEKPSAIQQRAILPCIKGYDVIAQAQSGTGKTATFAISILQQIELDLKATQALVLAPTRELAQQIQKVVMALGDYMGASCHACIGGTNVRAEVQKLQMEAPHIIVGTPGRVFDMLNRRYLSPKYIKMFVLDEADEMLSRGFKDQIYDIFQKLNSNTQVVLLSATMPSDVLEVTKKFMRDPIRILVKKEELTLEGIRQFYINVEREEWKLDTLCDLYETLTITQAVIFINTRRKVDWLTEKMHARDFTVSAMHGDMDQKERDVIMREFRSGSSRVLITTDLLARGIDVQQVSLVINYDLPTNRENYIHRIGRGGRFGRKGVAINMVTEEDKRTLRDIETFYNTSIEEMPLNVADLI

Row | SMILES | Effect of pretreatment on SG formation induced by 15d-PGJ2 and PGA1 [1] | PPARγ-mediated PPRE activation [2] | SG formation ([3]; Dang et al., 2006) | Translation ([3]; Low et al., 2005)
1 | O=C(Nc1ccccc1)c1cc([N+](=O)[O-])ccc1Cl [GW9662] | had no effect on SG formation induced by 15d-PGJ2 and PGA1 | completely blocked |  | 
2 | CC(/C=C/C(C)=C/[C@@H]1Cc2nc(cs2)[C@@H](C)C[C@@H](N)CC(=O)O[C@@H](C)C/C(C)=C/C=C\C(=O)O1)=C\CN(C)C [PatA, pateamine A] |  |  | induces formation of SGs independently of eIF2F phosphorylation | could block translation by inactivating eIF4A
